Consider eight compounds from patent US20260207459A1, “SUGARCANE DERIVED SEMI-SYNTHETIC COSMETIC INGREDIENTS, METHODS OF PRODUCTION THEREOF, AND PERSONAL CARE PRODUCTS DERIVED THEREFROM” (AMYRIS, INC., priority 2023, published 2026).

A short description of data set [1]: In vitro skin permeation, Franz diffusion cell system. In kind it is in vitro ADME, human. The settings on record: for Total accumulated dose passed through the skin into the reservoir / Total accumulated dose in Dermis / Total accumulated dose in Epidermis: 1.0 wt % in squalane, 5 μl, nominal 90.91 μg/cm^2; for Total accumulated dose in Dermis / Total accumulated dose in Epidermis: measured at 24 hours; for penetration to the dermis compared with THDA: 24 hour time point, cadaver skin. As for the experimental part: The rate and extent of in vitro skin permeation of compounds tetrahexydecyl ascorbate (THDA, shown below), di(hexahydrofarnesyl) ascorbate (Compound (II-A)), tri(hexahydrofarnesyl) ascorbate (Compound (II-B)), and tetra(hexahydrofamesyl) ascorbate (Compound (II-C)) was measured into and through cadaver skin using a Franz diffusion cell system. THDA is a Vitamin C ester commonly used in cosmetic formulations.
Flux was measured over a period of 24 hours after application of the formulations. At the end of the 24 hour study, the skin was washed, tapestripped and split into epidermal and dermal compartments. The compounds were then extracted from the skin compartments and the compound concentration was measured in these compartments along with the receptor fluid aliquots. The formulations were chosen to determine the effect of the formulation composition and compound concentration on the rate of delivery of the compounds into and through the skin. In vitro skin permeation measurements with Franz-type diffusion cells provide data that is informative relative to in vivo performance.
To prepare the formulations, the compounds were weighed in a glass vial into which the squalane was added. The ending solution was then vortexed for 1 minute, followed by sonication for 30 minutes.
Intact human cadaver skin was purchased from Science Care. The skin tissue was dermatomed by the tissue bank to a thickness of some 250-500 μm and shipped frozen on dry ice. Upon receipt of the donor skin, the skin pieces were stored at −20° C. until used. Prior to use, the skin pieces were removed from the freezer and allowed to thaw fully at ambient temperature.
The following equipment was used during the course of the study: • 1.) Diffusion cells. 24 diffusion cells with 3.3 ml receptor volume and a […] receptor fluid exposure surface area. • 2.) Stirring Dry Block Heaters. Reacti-Therm #18823 stirring dry block heaters were used to maintain the receptor fluid at 32±0.5° C. with constant stirring throughout the study. • 3.) The analysis was carried out with an Agilent 1260 HPLC with a G6120 MS detector and a G4212B diode array detector.
After the analytical testing was complete, the samples were analyzed using Chemstation software. The areas under the curve (“AUCs”) of the compound peaks were recorded and converted to jig/ml values using a calibration curve developed from the calibration standards' AUC values and known concentration values. The concentrations were then multiplied by the receptor volume (3.3 mL) and divided by the surface area of the skin exposed to the receptor fluid (0.55 cm^2) for an end cumulative amount in μg/cm^2.
For receptor fluid time points greater than 4 hrs, this μg/cm^2 value was corrected for the sample aliquot volumes which were removed to compensate for the dilution caused by replacing the sample volume with fresh buffer solution. As an example, for the second time point at 8 hrs, the dilution factor (300 μl aliquot/3.3 ml receptor volume or 1/11) is multiplied by the g/cm^2 value calculated for the 4 hr time point, the result of which is then added to the μg/cm^2 concentration which is calculated using the 8 hr AUC value.
The receptor fluid consisted of phosphate buffered saline at pH 7.4, sourced from Quality Biologicals, with 0.01 wt % NaN3 (added as a preservative), and lwt % Brij 020 (added as a solubilizing agent). The solubility of the compounds in the receptor fluid was determined to be sufficient to maintain sink conditions throughout the study. After mixing the receptor fluid, the receptor fluid was degassed, filtered through a ZapCap CR 0.2 μm membrane under vacuum, and stirred for an additional 20 minutes under vacuum.
Glass FDCs with a 3.3 ml receiver volume and 0.55 cm^2 diffusional area were used. Once the skin was defrosted and washed as described above the FDCs were prepared as follows: • 1. The receptor wells were filled with degassed receptor fluid using a pipette. • 2. […]

Data set [2] is described as follows: Viscosity (capillary viscometer / rheometer). In kind it is physicochemical. To be noted: for Viscosity: at 25° C., ARES G2 rheometer. On the procedure:
The viscosity, gloss, surface tension, and wetting were also calculated for farnesyl HH-farnesoate (Compound (I-C)) and the results are shown in Table 4. The properties of Table 4 were determined as follows: Measurement of dynamic viscosity using rheometer: Using a ARES G2 rheometer, the viscosity of the samples were measured using 25 mm plate clamps with a gap size about 0.5 mm, strain 1%, frequency range 1-500 rad/s, and a temperature of about 25° C.

Data set [3] can be described thus: Surface tension by pendant drop. It is filed as physicochemical. To be noted: for surface tension (comparison in words): pendant drop shape analysis, FIG. 4; for Surface tension: Kruss DSA 100, pendant drop. As for the experimental part:
The surface tension of a material in beauty and personal care (B&PC) ingredients accounts for many of the sensory attributes. The lower the surface tension of a material the better is the material's spreadability, slip, glide, and lubricity.
(§1) Example 9: Wetting on Hydrophobic-PTFE and Hydrophilic-Glass Slide Substrates by Static Contact Angle and Surface Tension by Pendant Drop Shape Analysis
(§2) The wetting values (on hydrophobic-PTFE and on hydrophilic-glass slides) were measured and compared for amodimethicone, LEX FEEL (diheptyl succinate), non-redistilled HDD, distilled HDD, PROTOL (mineral oil), RUDOL (mineral oil), ERVOL (mineral oil), and squalane. […] The lower surface tension of HDD can be translated to better spreading and glide in formulations and position it comparably with mineral oils with similar viscosities and LEX FEEL 350.
(§3) Measurement of surface tension of liquids: A Kruss DSA 100 was employed using the pendant drop method. Prior to the measurement, surface tension of the water was tested as a standard with an expected surface tension of 72 mN/m at 25° C. Then, a drop of the tested liquid was pushed through a 0.514 mm needle of a micro syringe and the surface tension was calculated using inbuilt software. The result of the measurement is an average of at least 3 measurements. Static contact angle measurement (wetting): To measure the contact angle, a Kriss DSA 100 and the sessile drop method were used. A glass substrate was used for the measurements. To measure the contact angle on the substrate, a single drop was deposited onto the substrate from a 0.514 mm needle of a micro syringe. Then, drop shape and contact angle were analyzed using inbuilt software. The result of the measurement was the average of at least 3 measurements. To ensure that the substrate is prepared well, it was cleaned with non-polar hexane, THF, and polar acetone. To ensure that the glass substrate was clean, a drop of water was deposited on its surface. Gloss measurement: To measure the gloss, 2 mL of material was drawn downed on a glass substrate. Then glass was placed over a black matte surface and gloss was measured with a BYK micro-TRI-gloss glossmeter.

A short description of data set [4]: Static contact angle (wetting) on glass / PTFE. It is filed as physicochemical. To be noted: for Water contact angle: static contact angle on glass. As for the experimental part: Static water contact angle is another indication of material spreading and wetting.
as §1, §2, §3

Data set [5] can be described thus: Gloss measurement (glossmeter). It is filed as physicochemical. As for the experimental part: Gloss is a very desirable property in B&PC products. Gloss was measured at 20 deg.
Tested dimethicones have the lowest gloss.
as §3

In the case of `CC(C)CCCC(C)CCCC(C)CC(=O)OC[C@H](OC(=O)CC(C)CCCC(C)CCCC(C)C)C1OC(=O)C(OC(=O)CC(C)CCCC(C)CCCC(C)C)=C1OC(=O)CC(C)CCCC(C)CCCC(C)C` (stereo partly drawn) [Compound (II-C), 2-((1S)-1,2-bis((3,7,11-trimethyldodecanoyl)oxy)ethyl)-5-oxo-2,5-dihydrofuran-3,4-diyl bis(3,7,11-trimethyldodecanoate)], the “Total accumulated dose passed through the skin into the reservoir” value is reported as 0.05 μg/cm^2 in data set [1] (4 hrs), 0.03 μg/cm^2 in data set [1] (8 hrs) and 0.04 μg/cm^2 in data set [1] (24 hrs). Moreover, in data set [1], the “Total accumulated dose in Dermis” value was 0.01 μg/cm^2. Moreover, the “Total accumulated dose in Epidermis” value in data set [1] was determined as 1.02 μg/cm^2.

`CC(C)CCCC(C)CCCC(C)CCCCC(C)CCCC(C)CCCC(C)C` (centres unmarked) [Squalane, squalane, reference compound]: the “Viscosity @20 C., cP” value in data set [2] is 23.3 cP. For the same compound, the “Surface tension, mN/m” value in data set [3] was found to be 26.1 mN/m. In data set [4], the Water contact angle is 30.9 °. Further, in data set [5], the “gloss value (comparison in words)” value is on record as “somewhat lower gloss value”. For the same compound, the Gloss in data set [5] (measured at 20 deg) turned out to be 65.7.

For `CC(C)CCCC(C)CCCC(C)CC(=O)OC[C@H](OC(=O)CC(C)CCCC(C)CCCC(C)C)C1OC(=O)C(O)=C1O` (stereo partly drawn) [Compound (II-A), (1S)-1-(3,4-dihydroxy-5-oxo-2,5-dihydrofuran-2-yl)ethane-1,2-diyl bis(3,7,11-trimethyldodecanoate)], the “Total accumulated dose passed through the skin into the reservoir” value in data set [1] (4 hrs) worked out at 0.17 μg/cm^2. Moreover, the “Total accumulated dose passed through the skin into the reservoir” value in data set [1] (8 hrs) is 0.18 μg/cm^2. In data set [1], the “penetration to the dermis compared with THDA” value is reported as “better penetration to the dermis”, the “Total accumulated dose in Dermis” value stood at 0.85 μg/cm^2 and the “Total accumulated dose in Epidermis” value is recorded as 9.28 μg/cm^2. Further, the “Total accumulated dose passed through the skin into the reservoir” value in data set [1] (24 hrs) came out at 0.20 μg/cm^2.

`CC(C)CCCC(C)CCCC(C)CC(=O)OC[C@H](OC(=O)CC(C)CCCC(C)CCCC(C)C)C1OC(=O)C(O)=C1OC(=O)CC(C)CCCC(C)CCCC(C)C` (stereo partly drawn) [Compound (II-B), (1S)-1-(4-hydroxy-5-oxo-3-((3,7,11-trimethyldodecanoyl)oxy)-2,5-dihydrofuran-2-yl)ethane-1,2-diyl bis(3,7,11-trimethyldodecanoate)]: the “Total accumulated dose passed through the skin into the reservoir” value in data set [1] (4 hrs) came to 0.00 μg/cm^2. In addition, the “Total accumulated dose passed through the skin into the reservoir” value in data set [1] (8 hrs) is given as 0.00 μg/cm^2. Moreover, in data set [1], the “penetration to the dermis compared with THDA” value is “better penetration to the dermis”, the “Total accumulated dose in Dermis” value is on record as 1.37 μg/cm^2 and the “Total accumulated dose in Epidermis” value worked out at 4.41 μg/cm^2. Moreover, the “Total accumulated dose passed through the skin into the reservoir” value in data set [1] (24 hrs) was found to be 0.00 μg/cm^2.

Take hexahydrofarnesene dimer [HDD]: in data set [2], the “Viscosity @20 C., cP” value is given as 61.5 cP and the viscosity by rheology is listed as 61.5. For the same compound, the “Surface tension, mN/m” value in data set [3] is reported as 24.5 mN/m. The “surface tension (comparison in words)” value in data set [3] (listed as Distilled HDD) is “lower surface tension value”. This compound also showed a Water contact angle in data set [4] of 19.8 °. Also, the Gloss in data set [5] (measured at 20 deg) stood at 70.6.

Turning to `CC(C)CCCC(C)CCCC(C)CCOC(=O)CC(C)CCCC(C)CCCC(C)C` (centres unmarked) [Compound (I-C), 3,7,11-trimethyldodecyl 3,7,11-trimethyldodecanoate], the Viscosity in data set [2] turned out to be 30 ± 10 cP at 25 °C; in data set [2] (listed as Compound I-C) it was 30±10 cP. Moreover, the Surface tension in data set [3] came to 27.6 ± 0.2 mN/m; in data set [3] (listed as Compound I-C) it was 27.6±0.2 mN/m. Besides, the “Wetting (static contact angle)” value in data set [4] (sessile drop on glass substrate) is 18.5°. The compound further came in with a Gloss in data set [5] (BYK micro-TRI-gloss glossmeter, drawn down on glass) of 69.4 ± 2.7.

“hexahydrofarnesene dimer [HDD Glycotech]” showed a viscosity by rheology in data set [2] of 68.2. The “surface tension (comparison in words)” value in data set [3] (listed as Non-redistilled HDD) was “highest values of surface tension”.

Consider `CCCCCCCCC(CCCCCC)C(=O)OCC(OC(=O)C(CCCCCC)CCCCCCCC)C1OC(=O)C(OC(=O)C(CCCCCC)CCCCCCCC)=C1OC(=O)C(CCCCCC)CCCCCCCC` (centres unmarked) [Tetrahexydecyl ascorbate, tetrahexydecyl ascorbate, reference compound], for which the “Total accumulated dose passed through the skin into the reservoir” value in data set [1] (4 hrs), in data set [1] (8 hrs) and in data set [1] (24 hrs) was 0.00 μg/cm^2 in each case. For the same compound, the “Total accumulated dose in Dermis” value in data set [1] was found to be 0.18 μg/cm^2. For the same compound, the “Total accumulated dose in Epidermis” value in data set [1] stood at 25.78 μg/cm^2.
